The target in the first assay is T1, human APJ receptor (Homo sapiens, UniProt P35414).
T1 construct: expressed in transfected cells
T1 sequence (P35414 1-380): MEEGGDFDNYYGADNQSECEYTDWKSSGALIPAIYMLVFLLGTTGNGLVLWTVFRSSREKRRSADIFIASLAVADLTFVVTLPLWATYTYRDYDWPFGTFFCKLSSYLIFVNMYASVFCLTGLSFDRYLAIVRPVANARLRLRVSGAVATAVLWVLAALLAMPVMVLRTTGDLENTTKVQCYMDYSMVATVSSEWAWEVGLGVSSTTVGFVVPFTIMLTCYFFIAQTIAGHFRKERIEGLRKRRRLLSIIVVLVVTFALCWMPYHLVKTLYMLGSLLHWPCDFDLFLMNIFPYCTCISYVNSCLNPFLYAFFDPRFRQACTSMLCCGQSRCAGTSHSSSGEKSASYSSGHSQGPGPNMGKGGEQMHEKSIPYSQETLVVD
The assay is described as follows: Intracellular cAMP accumulation assay (APJ hcAMP, HTRF). The assay is classed as cell-based. The note with it: HEK293 cells stably expressing human APJ receptor; inhibition of forskolin-mediated cAMP production; stated at end of example; read-out: Human APJ cAMP Potency Range. The method in brief: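 HEK293 cells stably expressing the receptor (5,000/well) treated with compound plus […] and 2 μM forskolin for 30 min at room temperature; cAMP by HTRF against a cAMP standard curve. EC50 from variable-slope sigmoidal fit; Ymax as % of (Pyr1)apelin-13 inhibition.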
(In general: Cyclic AMP is a second messenger, typically raised through Gs and lowered through Gi signalling.)
In the case of `CCCCc1nc(O)c(-c2nnc(Cc3noc4ccccc34)o2)c(=O)n1[C@@H](CC)c1ccccc1` [Example 74, (S)-5-(5-(Benzo[d]isoxazol-3-ylmethyl)-1,3,4-oxadiazol-2-yl)-2-butyl-6-hydroxy-3-(1-phenylpropyl)pyrimidin-4(3H)-one], the EC50 was 0.01 to 10 nM.

Still in this assay, the particulars now being: Table 1; HEK293 cells stably expressing human APJ receptor; read-out: hAPJ cAMP EC50 Potency range.
`COc1cccc(OC)c1-n1c(C2CCC2)nc(=O)c(-c2nnc(Cc3ncc(Cl)cc3F)o2)c1O` [Example 71, 5-{5-[(5-chloro-3-fluoropyridin-2-yl)methyl]-1,3,4-oxadiazol-2-yl}-2-cyclobutyl-1-(2,6-dimethoxyphenyl)-6-hydroxy-1,4-dihydropyrimidin-4-one]: the EC50 is 0.01 to 10 nM. Still for that read-out and setting: as for `COc1cccc(OC)c1-n1c(C2CCC2)nc(=O)c(-c2nnc(CN3CCCC3=O)o2)c1O` [Example 72, 2-cyclobutyl-1-(2,6-dimethoxyphenyl)-6-hydroxy-5-{5-[(2-oxopyrrolidin-1-yl)methyl]-1,3,4-oxadiazol-2-yl}-1,4-dihydropyrimidin-4-one], the figure is 0.01 to 10 nM. Still for that read-out and setting: as for `COc1cccc(OC)c1-n1c(C2CCC2)nc(=O)c(-c2nnc(Cc3csc(C)n3)o2)c1O` [Example 73, 2-cyclobutyl-1-(2,6-dimethoxyphenyl)-6-hydroxy-5-{5-[(2-methyl-1,3-thiazol-4-yl)methyl]-1,3,4-oxadiazol-2-yl}-1,4-dihydropyrimidin-4-one], the figure is 0.01 to 10 nM.

Staying with this assay, now noted: Table 2; HEK293 cells stably expressing human APJ receptor; read-out: hAPJ cAMP EC50 Potency range.
With `CCCCc1nc(O)c(-c2nnc(Cc3noc4ccccc34)o2)c(=O)n1[C@@H](C)c1ccccc1` [Example 75, 5-{5-[(1,2-benzoxazol-3-yl)methyl]-1,3,4-oxadiazol-2-yl}-2-butyl-6-hydroxy-3-[(1S)-1-phenylethyl]-3,4-dihydropyrimidin-4-one], the EC50 was in the range of 10 to 100 nM. Same read-out and setting: as for `CCCCc1nc(O)c(-c2nnc(Cc3csc(C)n3)o2)c(=O)n1[C@@H](C)c1ccccc1` [Example 76, 2-butyl-6-hydroxy-5-{5-[(2-methyl-1,3-thiazol-4-yl)methyl]-1,3,4-oxadiazol-2-yl}-3-[(1S)-1-phenylethyl]-3,4-dihydropyrimidin-4-one], the figure is 0.01 to 10 nM. As for `CCCCc1nc(O)c(-c2nnc(Cc3ccc(Cl)cc3)o2)c(=O)n1[C@@H](C)C1CC1` [Example 77, 2-butyl-5-{5-[(4-chlorophenyl)methyl]-1,3,4-oxadiazol-2-yl}-3-[(1S)-1-cyclopropylethyl]-6-hydroxy-3,4-dihydropyrimidin-4-one], the EC50 fell in the range of 100 to 300 nM. On to `CCCCc1nc(O)c(-c2nnc(Cc3noc4ccccc34)o2)c(=O)n1[C@H](C)c1ccccc1OC` [Example 78, 5-{5-[(1,2-benzoxazol-3-yl)methyl]-1,3,4-oxadiazol-2-yl}-2-butyl-6-hydroxy-3-[(1R)-1-(2-methoxyphenyl)ethyl]-3,4-dihydropyrimidin-4-one], for which the EC50 was 10 to 100 nM. Consider `CCCCc1nc(O)c(-c2nnc(Cc3csc(C)n3)o2)c(=O)n1[C@H](C)c1ccccc1OC` [Example 79, 2-butyl-6-hydroxy-3-[(1R)-1-(2-methoxyphenyl)ethyl]-5-{5-[(2-methyl-1,3-thiazol-4-yl)methyl]-1,3,4-oxadiazol-2-yl}-3,4-dihydropyrimidin-4-one], for which the EC50 was in the range of 0.01 to 10 nM. The same measure, in the same setting: as for `CCCCc1nc(O)c(-c2nnc(Cc3csc(C)n3)o2)c(=O)n1[C@H](C)C1CC1` [Example 80, 2-butyl-3-[(1R)-1-cyclopropylethyl]-6-hydroxy-5-{5-[(2-methyl-1,3-thiazol-4-yl)methyl]-1,3,4-oxadiazol-2-yl}-3,4-dihydropyrimidin-4-one], the figure is 100 to 300 nM; as for `CCCCc1nc(O)c(-c2nnc(Cc3ccc(Cl)cc3)o2)c(=O)n1[C@H](C)c1ccccc1OC` [Example 81, 2-butyl-5-{5-[(4-chlorophenyl)methyl]-1,3,4-oxadiazol-2-yl}-6-hydroxy-3-[(1R)-1-(2-methoxyphenyl)ethyl]-3,4-dihydropyrimidin-4-one], 10 to 100 nM; as for `CCCCc1nc(O)c(-c2nnc(Cc3csc(C)n3)o2)c(=O)n1[C@H](C)c1ccccc1` [Example 82, 2-butyl-6-hydroxy-5-{5-[(2-methyl-1,3-thiazol-4-yl)methyl]-1,3,4-oxadiazol-2-yl}-3-[(1R)-1-phenylethyl]-3,4-dihydropyrimidin-4-one], 10 to 100 nM. Take `CCCCc1nc(O)c(-c2nnc(Cc3ccc(Cl)cc3)o2)c(=O)n1[C@H](C)c1ccccc1` [Example 83, 2-butyl-5-{5-[(4-chlorophenyl)methyl]-1,3,4-oxadiazol-2-yl}-6-hydroxy-3-[(1R)-1-phenylethyl]-3,4-dihydropyrimidin-4-one]: the EC50 lay within 10 to 100 nM. With `CCCCc1nc(O)c(-c2nnc(Cc3ccc(Cl)cc3)o2)c(=O)n1[C@@H](CC)c1ccccc1` [Example 84, 2-butyl-5-{5-[(4-chlorophenyl)methyl]-1,3,4-oxadiazol-2-yl}-6-hydroxy-3-[(1S)-1-phenylpropyl]-3,4-dihydropyrimidin-4-one], the EC50 lay in the range of 10 to 100 nM. Consider `CCCCc1nc(O)c(-c2nnc(Cc3csc(C)n3)o2)c(=O)n1[C@@H](CC)c1ccccc1` [Example 85, 2-butyl-6-hydroxy-5-{5-[(2-methyl-1,3-thiazol-4-yl)methyl]-1,3,4-oxadiazol-2-yl}-3-[(1S)-1-phenylpropyl]-3,4-dihydropyrimidin-4-one], for which the EC50 was 0.01 to 10 nM. As for `CCCCc1nc(O)c(-c2nnc(Cc3noc4ccccc34)o2)c(=O)n1[C@H](C)c1ccccc1` [Example 86, 5-{5-[(1,2-benzoxazol-3-yl)methyl]-1,3,4-oxadiazol-2-yl}-2-butyl-6-hydroxy-3-[(1R)-1-phenylethyl]-3,4-dihydropyrimidin-4-one], the EC50 is 0.01 to 10 nM. For the compound `CCCCc1nc(O)c(-c2nnc(Cc3noc4ccccc34)o2)c(=O)n1[C@H](CC)c1ccccc1` [Example 87, 5-{5-[(1,2-benzoxazol-3-yl)methyl]-1,3,4-oxadiazol-2-yl}-2-butyl-6-hydroxy-3-[(1R)-1-phenylpropyl]-3,4-dihydropyrimidin-4-one], the EC50 was in the range of 0.01 to 10 nM. For the compound `CCCCc1nc(O)c(-c2nnc(Cc3csc(C)n3)o2)c(=O)n1[C@H](CC)c1ccccc1` [Example 88], the EC50 was in the range of 0.01 to 10 nM. Turning to `CCCCc1nc(O)c(-c2nnc(Cc3ccc(Cl)cc3)o2)c(=O)n1[C@H](CC)c1ccccc1` [Example 89, 2-butyl-5-{5-[(4-chlorophenyl)methyl]-1,3,4-oxadiazol-2-yl}-6-hydroxy-3-[(1R)-1-phenylpropyl]-3,4-dihydropyrimidin-4-one], the EC50 is 10 to 100 nM.

Take `CCCCc1nc(O)c(-c2nnc(Cc3noc4ccccc34)o2)c(=O)n1[C@H](COC)c1ccccc1` [Example 90, 5-{5-[(1,2-benzoxazol-3-yl)methyl]-1,3,4-oxadiazol-2-yl}-2-butyl-6-hydroxy-3-[(1S)-2-methoxy-1-phenylethyl]-3,4-dihydropyrimidin-4-one]: the EC50 lay in the range of 100 to 300 nM.

With `CCCCc1nc(O)c(-c2nnc(Cc3noc4ccccc34)o2)c(=O)n1[C@@H](COC)c1ccccc1` [Example 91, 5-{5-[(1,2-benzoxazol-3-yl)methyl]-1,3,4-oxadiazol-2-yl}-2-butyl-6-hydroxy-3-[(1R)-2-methoxy-1-phenylethyl]-3,4-dihydropyrimidin-4-one], the EC50 was 10 to 100 nM.

`CCCCc1nc(O)c(-c2nnc(Cc3noc4ccccc34)o2)c(=O)n1[C@H]1CCCc2ccccc21` [Example 92, 5-{5-[(1,2-benzoxazol-3-yl)methyl]-1,3,4-oxadiazol-2-yl}-2-butyl-6-hydroxy-3-[(1S)-1,2,3,4-tetrahydronaphthalen-1-yl]-3,4-dihydropyrimidin-4-one]: the EC50 is 100 to 300 nM. On to `CCCCc1nc(O)c(-c2nnc(Cc3csc(C)n3)o2)c(=O)n1[C@H](COC)c1ccccc1` [Example 93, 2-butyl-6-hydroxy-3-[(1S)-2-methoxy-1-phenylethyl]-5-{5-[(2-methyl-1,3-thiazol-4-yl)methyl]-1,3,4-oxadiazol-2-yl}-3,4-dihydropyrimidin-4-one], for which the EC50 lay within 100 to 300 nM. Still for that read-out and setting: as for `CCCCc1nc(O)c(-c2nnc(Cc3csc(C)n3)o2)c(=O)n1[C@@H](COC)c1ccccc1` [Example 94, 2-butyl-6-hydroxy-3-[(1R)-2-methoxy-1-phenylethyl]-5-{5-[(2-methyl-1,3-thiazol-4-yl)methyl]-1,3,4-oxadiazol-2-yl}-3,4-dihydropyrimidin-4-one], the figure is 0.01 to 10 nM; as for `CCCCc1nc(O)c(-c2nnc(Cc3csc(C)n3)o2)c(=O)n1[C@@H](C)c1ccc(F)cc1` [Example 95, 2-butyl-3-[(1S)-1-(4-fluorophenyl)ethyl]-6-hydroxy-5-{5-[(2-methyl-1,3-thiazol-4-yl)methyl]-1,3,4-oxadiazol-2-yl}-3,4-dihydropyrimidin-4-one], 10 to 100 nM.

`CCCCc1nc(O)c(-c2nnc(Cc3noc4ccccc34)o2)c(=O)n1[C@H]1CCc2ccccc21` [Example 96, 5-{5-[(1,2-benzoxazol-3-yl)methyl]-1,3,4-oxadiazol-2-yl}-2-butyl-3-[(1S)-2,3-dihydro-1H-inden-1-yl]-6-hydroxy-3,4-dihydropyrimidin-4-one]: the EC50 lay in the range of 10 to 100 nM.

Take `CCCCc1nc(O)c(-c2nnc(Cc3csc(C)n3)o2)c(=O)n1[C@H]1CCc2ccccc21` [Example 97, 2-butyl-3-[(1S)-2,3-dihydro-1H-inden-1-yl]-6-hydroxy-5-{5-[(2-methyl-1,3-thiazol-4-yl)methyl]-1,3,4-oxadiazol-2-yl}-3,4-dihydropyrimidin-4-one]: the EC50 was 0.01 to 10 nM.

(Values after patent US10669261B2, “Heteroarylhydroxypyrimidinones as agonists of the APJ receptor” (BRISTOL-MYERS SQUIBB COMPANY, priority 2015, dated 2020).)
